From paper PMC8708495, “Population Pharmacokinetics and Pharmacodynamic Target Attainment of Isavuconazole against Aspergillus fumigatus and Aspergillus flavus in Adult Patients with Invasive Fungal Diseases: Should Therapeutic Drug Monitoring for Isavuconazole Be Considered as Mandatory as for the Other Mold-Active …” (Pharmaceutics, 2021)
Like-named read-outs stand apart in the source and are kept apart here.

Legend:
[1] = set-up: method as in PMID 26598096; details: cited from earlier work
[2] = Therapeutic drug monitoring of isavuconazole Ctrough and Cpeak in hospitalized patients; assay type: in vivo, human
Protocol: Isavuconazole treatment was started with a loading dose of 200 mg every 8 h for two days, followed by a maintenance dose of 200 mg daily administered orally or intravenously, at the physician’s discretion. Patients underwent TDM of isavuconazole by assessing plasma Ctrough, which was determined approximately five minutes before the scheduled daily dose, and, whenever possible, also plasma Cpeak, which was determined 2 h after oral administration or 0.5 h after a 1 h intravenous infusion. TDM was assessed firstly after at least 72 h from starting therapy and subsequently reassessed at the discretion of the attending physician.
Blood samples for isavuconazole TDM were immediately delivered to the Institute of Clinical Pharmacology, where they were centrifuged to obtain serum. Isavuconazole serum concentrations were estimated by means of a validated liquid chromatography–tandem mass spectrometry analytic method. Precision and accuracy were assessed by replicate analysis of quality control samples against calibration standards. Intra- and interassay coefficients of variation were always <10%. The LOQ was 0.11 mg/L, and the assay was linear in the range of 0.1–10 mg/L.

[3] = cited from earlier work
[4] = Safety and liver enzyme monitoring during isavuconazole therapy; assay type: in vivo
Protocol: (§1) The following demographic and clinical data were retrieved from each patient’s medical record: age, gender, weight, height, type and site of infection and microbiological isolate. Patient comedications, along with serum albumin, total bilirubin, ALT, AST and γ-GT concentrations, were recorded at each TDM assessment. Drug-induced liver injury was defined as mild, moderate, severe or fatal according to the EASL Clinical Practice Guidelines for drug-induced liver injury. Drug cotreatments were accurately reviewed by a clinical pharmacologist with the intent of assessing the eventual influence on isavuconazole clearance by CYP3A4 inhibitors and/or inducers. CYP3A4 inhibitors and/or inducers were classified as strong, moderate and mild according to the FDA [19] and to the DrugBank database. Patient outcome at end of therapy was defined as successful (in case of clinical, radiological and/or mycological resolution or improvement of infection) or failed according to [21].

A. flavus = tested on: A. flavus; set-up: method as in earlier work; details: EUCAST; cited from earlier work
A. fumigatus [5] = tested on: A. fumigatus; set-up: method as in PMID 25753636; details: EUCAST MIC method; associated with a 90% survival rate against disseminated aspergillosis by wild-type and azole-resistant A. fumigatus; cited from earlier work
invasive fungal disease = assay: Clinical outcome at end of isavuconazole treatment; assay type: in vivo, human
Protocol: This was a monocentric, retrospective, observational study conducted among patients who were treated with isavuconazole because of IFD between September 2017 and November 2020 at the Azienda Sanitaria Universitaria Friuli Centrale of Udine, Italy.
as §1

A. fumigatus [6] = tested on: A. fumigatus; set-up: method as in earlier work; details: EUCAST; cited from earlier work
[7] = cited from earlier work; remark: listed apart in the source
[8] = Mixed-effect linear regression of clinical variables associated with isavuconazole Ctrough; assay type: in vivo, human
Protocol: Data were presented as median and interquartile range (IQR) for continuous variables or as count and percentage for categorical variables in the descriptive statistics. Univariate and multivariate linear mixed-effect models (with a random effect to account for correlation among repeated measurements within the same subject) were performed to identify clinical independent predictors of isavuconazole Ctrough. All variables that were associated with a p ≤ 0.20 at univariate analysis were subsequently included in the multivariate model. All statistical and graphical analyses were performed with R version 3.4.4 (R Foundation for Statistical Computing, Vienna, Austria). Data were considered statistically significant when p < 0.05.

[9] = Population pharmacokinetic modeling (NPAG, Pmetrics); assay type: in vivo, human; details: for clearance / Vd / bioavailability: human, serum, 200 mg daily; for clearance / Vd: other: orally or intravenously; for clearance: read-out: CL, total body clearance (converted); for bioavailability: po, read-out: Fos, oral bioavailability
Protocol: Population pharmacokinetics were conducted using the nonparametric adaptive grid approach (NPAG) and the algebraic model solver included in the Pmetrics package (Version 1.5.0, Laboratory of Applied Pharmacokinetics and Bioinformatics, Los Angeles, CA, USA) of R [22]. One- and two-compartment models with first-order absorption and first-order elimination from the central compartment were developed. Maximum a posteriori (MAP)-Bayesian estimates of isavuconazole clearance (CL) and volume of distribution (V) were determined in each patient.
Influence of covariates was assessed by including the biologically plausible clinical covariates into the basic model. Covariate analysis was conducted by means of the Pmetrics function “PMstep” and by linear regression between the median MAP-Bayesian estimates of isavuconazole pharmacokinetic parameters and each tested covariate.
Model comparison was performed by calculating the objective function value (OFV) and the Akaike information criterion (AIC) value. An improvement between the two competitive models was considered statistically significant when the decrease in the OFV was at least 3.84 points. For both the population predictions and the individual predictions, model fit was assessed by evaluating the coefficient of determination of the linear regression of the observed versus predicted concentration plot. Internal model validation was performed by means of a visual predictive check (VPC) with n = 1000 simulations. The normalized prediction distribution errors (NPDE) were also calculated. The VPC plot compares the observed concentrations with model-predicted concentration-time profiles. A model is reliable when ≥95% of the observed concentrations reside within the 95% CI of the model prediction. Assay laboratory error was estimated by means of the interday variability assay data. A first-order polynomial regression was used between drug concentrations and the standard deviation of the observations (C0 = 0.006, C1 = 0.189). Extra process noise was captured with a gamma (G) model (G = 2).

[10] = Mean, final population pharmacokinetic model
[11] = Median, final population pharmacokinetic model

For `C[C@@H](c1nc(-c2ccc(C#N)cc2)cs1)[C@](O)(Cn1cncn1)c1cc(F)ccc1F` [isavuconazole, Isavuconazole], the plasma protein binding [1] is listed as over 98%, the “proportion of measured Ctrough <1.0 mg/L” value ([2]; 2 of 175 Ctrough) is listed as 1.1% and the “proportion of measured Ctrough >5.13 mg/L” value ([2]; 50 of 175 Ctrough) is listed as 28.6%. The Cpeak ([2]; median of 24 Cpeak, patients n = 50, dose 200 mg) was 4.67 mg/L, the Ctrough ([2]; median of 175 Ctrough, patients n = 50, dose 200 mg) was 3680 ng/mL and the “cut-off value for toxicity (Ctrough)” value ([3]; ROC analysis, mild adverse events) was 5130 ng/mL. For the same molecule, the “Median isavuconazole concentration on days when side effects occurred” value [3] was 6.65 mg/L, the “Median isavuconazole concentration when side effects were not present” value [3] was 4.09 mg/L and the “isavuconazole levels associated with hepatic veno-occlusive disease” value ([3]; in vivo) was over 10 mg/L. The “linear increase of concentration for each day of treatment” value ([3]; linear mixed model, 264 Ctrough samples from 19 patients) was 0.032 mg/L, the “signs and/or symptoms of isavuconazole toxicity during therapy” value ([4]; 50 patients) was “No patient experienced signs and/or symptoms of isavuconazole toxicity during therapy” and the “ALT in intercurrent mild hepatotoxicity” value ([4]; one patient, resolved spontaneously without isavuconazole withdrawal) was “up to 261 IU/L”. The “alanine-aminotransferase (ALT), median (min–max)” value ([4]; patients on isavuconazole) was 21.0 (3.0–261.0) UI/L, the “aspartate-aminotransferase (AST), median (min–max)” value ([4]; patients on isavuconazole) was 20.0 (5.0–249.0) UI/L and the “gamma-glutamyltransferase (γ-GT), median (min–max)” value ([4]; patients on isavuconazole) was 70.0 (12.0–642.0) IU/L. The clinical breakpoint (A. flavus) was 1 mg/L, the “AUC24 h/MIC pharmacodynamic threshold of efficacy” value (A. fumigatus [5]) was over 33.4 and the “lack of significant improvement with isavuconazole treatment” value (invasive fungal disease; 3/47) was 6.4%. For the same molecule, the “Dead for other reasons” value (invasive fungal disease; 3/47, progression of underlying oncohematological disease) was 6.4%, the Treatment failure (invasive fungal disease; clinical outcome at end of treatment, Table 1 (12/47)) was 25.5% and the Successful treatment (invasive fungal disease; clinical outcome at end of treatment, patients who completed treatment (n = 47)) was 68.1%. The failure (invasive fungal disease; clinical outcome, text (9/47)) was 19.2%, the clinical breakpoint (A. fumigatus [6]) was 1 mg/L and the “dose up to which the pharmacokinetics are linear” value [7] was “up to 600 mg daily”. The elimination half-life [7] was 80 to 130 h, the “plasma drug accumulation ratio between start and end of therapy” value ([7]; multiple-dose study, 32 healthy volunteers, IV and oral) was 3.8–5.2 and the CL ([7]; observed in SOT patients) was 4.28 L/h. The “interindividual variability on CL” value ([7]; reported by previous analysis) was 43–63%, the CL ([7]; reported in clinical trials) was 2.2 to 2.5 L/h and the “Unstandardized β-Coefficient (95% CI) for Ctrough” value ([8]; Multivariate Analysis, Cotreatment with CYP3A4 inhibitors) was 2.154 (3.248–1.060). The “Unstandardized β-Coefficient (95% CI) for Ctrough” value ([8]; Multivariate Analysis, Dose/kg daily (mg/kg)) was 0.402 (0.819−0.016), the “Unstandardized β-Coefficient (95% CI) for Ctrough” value ([8]; Multivariate Analysis, γ-GT (IU/L)) was −0.0004 (0.002−0.002) and the “Unstandardized β-Coefficient (95% CI) for Ctrough” value ([8]; Univariate Analysis, ALT (IU/L)) was −0.001 (0.007−0.009). For the same molecule, the “Unstandardized β-Coefficient (95% CI) for Ctrough” value ([8]; Univariate Analysis, AST (IU/L)) was −0.008 (-0.002–0.004), the “Unstandardized β-Coefficient (95% CI) for Ctrough” value ([8]; Univariate Analysis, Albumin (g/L)) was 0.034 (0.087−0.019) and the “Unstandardized β-Coefficient (95% CI) for Ctrough” value ([8]; Univariate Analysis, Cotreatment with CYP3A4 inhibitors) was 2.39 (3.337–1.443). For the same molecule, the “Unstandardized β-Coefficient (95% CI) for Ctrough” value ([8]; Univariate Analysis, Days from starting therapy (days)) was 0.001 (0.007−0.005), the “Unstandardized β-Coefficient (95% CI) for Ctrough” value ([8]; Univariate Analysis, Dose/kg daily (mg/kg)) was 0.815 (1.164–0.466) and the “Unstandardized β-Coefficient (95% CI) for Ctrough” value ([8]; Univariate Analysis, Gender (male vs. female)) was 0.099 (6.986−6.788). For the same molecule, the “Unstandardized β-Coefficient (95% CI) for Ctrough” value ([8]; Univariate Analysis, Total bilirubin (mg/dL)) was −0.346 (0.034−0.726), the “Unstandardized β-Coefficient (95% CI) for Ctrough” value ([8]; Univariate Analysis, Weight (kg)) was −0.029 (0.006−0.064) and the “Unstandardized β-Coefficient (95% CI) for Ctrough” value ([8]; Univariate Analysis, γ-GT (IU/L)) was 0.003 (0.005–0.001). The “reduction in Ctrough” value ([8]; associated with patient age) was 3.7%, the “increase in isavuconazole Ctrough” value ([8]; cotreatment with mild/moderate CYP3A4 inhibitors) was “more than 2 fold” and the “Ka, first-order transfer rate constant of absorption” value [9, 10] was 22.64 h⁻¹. The “Vp, volume of distribution of the peripheral compartment” value [9, 10] was 735.24 L, the “CL, total body clearance” value [9, 11] was 1.33 L/h and the “Ka, first-order transfer rate constant of absorption” value [9, 11] was 22.64 h⁻¹. For the same molecule, the “Vp, volume of distribution of the peripheral compartment” value [9, 11] was 385.93 L, the clearance [9, 10] was 25.3 mL/min and the Vd ([9]; Mean, final population pharmacokinetic model, read-out: V, volume of distribution of the central compartment) was 89.5 L. For the same molecule, the clearance [9, 11] was 25.3 mL/min, the Vd ([9]; Median, final population pharmacokinetic model, read-out: V, volume of distribution of the central compartment) was 103 L and the Vd ([9]; population pharmacokinetic model, read-out: median volume of distribution) was 489 L. The bioavailability [9, 10] was 95%, the bioavailability [9, 11] was 100% and the “interindividual variability on CL” value ([9]; population pharmacokinetic model) was 64%.
